Among the test systems are Escherichia coli W160-37; Pseudomonas aeruginosa; Staphylococcus aureus; Escherichia coli MG1655; Vibrio cholerae; Botrytis cinerea.
Holding throughout (assay): ≥ marks a high value that may be exact or a test limit, other limits are often not marked, values filed in µg/mL are converted to µM
For assay [1], the system named is Candida albicans ATCC 90028.
Assay [2] has as its system Candida albicans NCPF 1467.
Assay [3] relates to Escherichia coli ATCC 11775.
Assay [4] deals with Escherichia coli ATCC 25922.
For assay [5], the system named is Escherichia coli NCTC 10418.
Assay [6] concerns Staphylococcus aureus ATCC 12493.
Assay [7] concerns Staphylococcus aureus ATCC 12600.
The test system of assay [8] is Staphylococcus aureus ATCC 25923.
Assay [9] has as its system Staphylococcus aureus NCTC 10788.
Assay [10] has as its system Staphylococcus aureus NCTC 8325.
The test system of assay [11] is Bacillus subtilis MTCC 14416.
The test system of assay [12] is Pseudomonas aeruginosa ATCC 27853.
Assay [13] concerns Staphylococcus aureus MTCC 9542.
For assay [14], the system named is Candida albicans ATCC 10231.
Assay [15] relates to Bacillus subtilis ATCC 62037.
The subject of assay [16] is Cryptococcus neoformans ATCC 34881.
Assay [17] concerns Escherichia coli ATCC 27325.
The subject of assay [18] is Pseudomonas putida ATCC 17426.
Assay [19] relates to Saccharomyces cerevisiae ATCC 44774.
Assay [20] deals with Salmonella enterica subsp. enterica serovar Enteritidis ATCC 13076.
Assay [21] has as its system Staphylococcus aureus ATCC 15752.
Assay [22] relates to Streptococcus mutans ATCC 25175.
The test system of assay [23] is Bacillus subtilis IFO 3513.
The test system of assay [24] is Escherichia coli IFO 12734.
The subject of assay [25] is Staphylococcus aureus IFO 12732.
Assay [26] deals with Bacillus megaterium ATCC 19213.
Assay [27] concerns Bacillus subtilis NBRC 3513.
Assay [28] deals with Staphylococcus aureus NBRC 12732.
In assay [29] the test system is Staphylococcus epidermidis NBRC 12933.

In brackets after ≈: the same amount, converted by molar mass. Several values for one entry are separate records, joined by “and”; a condition that tells them apart may be missing. Identical values can stand only once.

A word on the MIC: it is the lowest concentration that inhibits growth of the organism. Lower therefore signals greater potency. In the case of `CC[C@H](C)[C@@H]1NC(=O)[C@H](CC(C)C)NC(=O)[C@@H](NC(=O)[C@H](Cc2ccccc2)NC(=O)[C@H](CC(C)C)NC(=O)[C@H](CCCCN)NC(=O)[C@@H]2CCCN2C(=O)[C@H](CC(C)C)NC(=O)[C@H](C)NC(=O)[C@H](C)NC(=O)[C@H](CC(C)C)NC(=O)[C@H](C)NC(=O)[C@H](CC(C)C)NC(=O)[C@H](CO)NC(=O)[C@H](CC(C)C)NC(=O)[C@@H](N)Cc2ccccc2)CSSC[C@@H](C(=O)O)NC(=O)[C@H](CCCCN)NC(=O)[C@H](CCCCN)NC(=O)[C@H](Cc2ccccc2)NC1=O` [FLSLALAALPKLFCLIFKKC], the minimal inhibitory concentration (MIC) in assay [1] was no less than 100 µM; in assay [2], no less than 32 µM; in assay [3], 25 µM (≈ 55.9 µg/mL); in [4], > 60 µM and 100 µM; in assay [5] it was no less than 512 µM; in assay [6], no less than 32 µM. In addition, the MIC in assay [7] is 12.5 µM (≈ 28 µg/mL); in assay [8] it was greater than 60 µM; in assay [9], no less than 32 µM; in [10] it was 13 µM (≈ 29.1 µg/mL).
In the case of `CC[C@H](C)[C@H](NC(=O)CN)C(=O)N[C@@H](Cc1c[nH]c2ccccc12)C(=O)N[C@@H](CCCCN)C(=O)N[C@@H](CO)C(=O)N[C@@H](CC(C)C)C(=O)N[C@@H](Cc1ccccc1)C(=O)N[C@H](C(=O)N[C@@H](CCCCN)C(=O)N[C@@H](CC(C)C)C(=O)N[C@@H](CC(C)C)C(=O)N[C@@H](CCCCN)C(=O)NCC(N)=O)[C@@H](C)O` [GIWKSLFTKLLKG], the MIC in the assay on Escherichia coli W160-37 came to 3.35 µM (≈ 5 µg/mL); in the assay on Pseudomonas aeruginosa, 10.1 µM (≈ 15 µg/mL); with Staphylococcus aureus, 6.71 µM (≈ 9.99 µg/mL).
With `CC[C@H](C)[C@@H]1NC(=O)[C@H](CCCCN)NC(=O)[C@@H](NC(=O)[C@H](CC(C)C)NC(=O)[C@@H](NC(=O)[C@H](CCC(N)=O)NC(=O)[C@@H]2CCCN2C(=O)[C@H](CC(C)C)NC(=O)[C@H](Cc2ccccc2)NC(=O)[C@H](CC(N)=O)NC(=O)[C@H](C)NC(=O)[C@H](C)NC(=O)[C@H](CC(C)C)NC(=O)CN)[C@@H](C)CC)CSSC[C@@H](C(N)=O)NC(=O)[C@H](CCCCN)NC(=O)[C@H](CCCN=C(N)N)NC(=O)[C@H](C)NC1=O` [GLAANFLPQILCKIARKC], the MIC in assay [11] was no less than 51 µM; against Escherichia coli MG1655, no less than 51 µM; in assay [12], greater than 51 µM; in assay [13] it was 25.5 µM (≈ 49.9 µg/mL); against Vibrio cholerae it was 25.5 µM (≈ 49.9 µg/mL).
As for `CC[C@H](C)[C@H](N)C(=O)N[C@@H](CC(N)=O)C(=O)N[C@@H](CC(C)C)C(=O)N[C@@H](CCCCN)C(=O)NCC(=O)N[C@@H](CC(C)C)C(=O)N[C@H](C(=O)N[C@@H](CCCCN)C(=O)N[C@@H](CCCCN)C(=O)N[C@H](C(=O)N[C@@H](C)C(=O)N[C@@H](CO)C(=O)N[C@@H](CC(C)C)C(=O)N[C@@H](CC(C)C)C(=O)N[C@H](C(=O)O)[C@@H](C)O)C(C)C)[C@@H](C)CC` [INLKGLIKKVASLLT], the MIC in the assay on Botrytis cinerea is 5 µM (≈ 8.06 µg/mL); in assay [14], 100 µM (≈ 161 µg/mL); in assay [3] it was 25 µM (≈ 40.3 µg/mL); in [7], no less than 100 µM.
For `CC(C)[C@H](NC(=O)[C@H](CCCCN)NC(=O)CNC(=O)CNC(=O)[C@H](CCC(N)=O)NC(=O)[C@H](CCCCN)NC(=O)CNC(=O)[C@H](CCCN=C(N)N)NC(=O)CNC(=O)[C@@H](N)CCCCN)C(=O)N[C@@H](CCCN=C(N)N)C(=O)N[C@@H](C)C(=O)N[C@@H](CCCCN)C(=O)N[C@@H](C)C(=O)N[C@@H](CCCCN)C(=O)N[C@H](C(=O)N[C@@H](CCCN=C(N)N)C(=O)O)[C@@H](C)O` [KGRGKQGGKVRAKAKTR], the MIC in [15], in assay [14], in [16], in assay [17], in [18] and in assay [19] was 0.548 µM (≈ 1 µg/mL) throughout. In addition, the MIC in assay [20] amounted to 2.19 µM (≈ 4 µg/mL); in assay [21] it was 2.19 µM (≈ 4 µg/mL); in assay [22] it was 1.1 µM (≈ 2 µg/mL).
In the case of `CC[C@H](C)[C@H](NC(=O)[C@@H]1CCCN1C(=O)[C@H](Cc1c[nH]c2ccccc12)NC(=O)[C@H](CCC(N)=O)NC(=O)[C@H](CCCCN)NC(=O)[C@H](CC(C)C)NC(=O)[C@H](CC(C)C)NC(=O)[C@@H](N)CCCCN)C(=O)NCC(=O)N[C@@H](CCCCN)C(=O)N[C@@H](CC(C)C)C(=O)N[C@@H](CC(C)C)C(=O)N[C@@H](CCCCN)C(=O)N[C@@H](CCCCN)C(=O)N[C@@H](CC(C)C)C(=O)N[C@@H](CC(C)C)C(=O)N[C@@H](CCCCN)C(=O)N[C@@H](CCCCN)C(=O)N[C@@H](CC(C)C)C(=O)N[C@@H](CC(C)C)C(=O)N[C@@H](CCCCN)C(=O)O` [KLLKQWPIGKLLKKLLKKLLK], the MIC in assay [15] came to 0.395 µM (≈ 1 µg/mL); in [14], 0.395 µM (≈ 1 µg/mL); in assay [16], 0.395 µM (≈ 1 µg/mL); in [17] it was 0.198 µM (≈ 0.5 µg/mL); in assay [18] it was 0.395 µM (≈ 1 µg/mL); in assay [19], 0.395 µM (≈ 1 µg/mL). Further, the MIC was 0.395 µM (≈ 1 µg/mL) in assay [20], 0.198 µM (≈ 0.5 µg/mL) in [21] and 0.395 µM (≈ 1 µg/mL) in [22].
Turning to `CC[C@H](C)[C@H](NC(=O)[C@H](CC(C)C)NC(=O)[C@@H]1CCCN1C(=O)[C@H](Cc1c[nH]c2ccccc12)NC(=O)[C@H](CCCCN)NC(=O)[C@H](Cc1c[nH]c2ccccc12)NC(=O)[C@@H]1CCCN1C(=O)[C@H](CC(C)C)NC(=O)[C@H](CC(C)C)NC(=O)[C@@H]1CCCN1C(=O)[C@H](Cc1c[nH]c2ccccc12)NC(=O)[C@H](CCCN=C(N)N)NC(=O)[C@@H](N)CCCN=C(N)N)C(N)=O` [RRWPLLPWKWPLI], the figures for the MIC in [23], in assay [24] and in assay [25] were 3.55 µM (≈ 6.25 µg/mL), 14.2 µM (≈ 25 µg/mL) and 3.55 µM (≈ 6.25 µg/mL), respectively.
For the compound `CC(C)C[C@H](NC(=O)[C@H](CCCCN)NC(=O)[C@H](CC(C)C)NC(=O)[C@H](CC(C)C)NC(=O)[C@H](Cc1c[nH]c2ccccc12)NC(=O)[C@@H](N)CCCN=C(N)N)C(=O)NCC(=O)N[C@@H](Cc1cnc[nH]1)C(=O)N[C@@H](Cc1cnc[nH]1)C(=O)NCC(=O)N[C@@H](CCCN=C(N)N)C(=O)O` [RWLLKLGHHGR], the MIC in assay [26] is no less than 32 µM; in [27], no less than 64 µM; in assay [28] it was no less than 64 µM; in assay [29], no less than 128 µM.
